Converted amounts (≈) assume the structure as drawn. Where two headings read alike, the source gives them in different places.
Test system: A. baumannii DSM 105126
Experiment: MIC 50, broth micro-dilution, DSM strains
Format: cell-based, Acinetobacter baumannii
Excerpt: 3.2 Against Selected Bacteria of the ESKAPE Panel and Enterococcus faecalis (DSM Strains)
Tested reference compounds. Amikacin sulfate (Cat. No. 01693, Chem-Impex), Gentamicin sulfate (Cat. No. G4918, Sigma Aldrich).
Microbial strains. Enterococcus faecalis DSM 2570, Klebsiella pneumoniae DSM 26371, Acinetobacter baumannii DSM 105126, Enterobacter cloacae 3MRGN (clinical bronchial aspirate isolate).
Culture media and equipment. BBL™ Mueller Hinton Broth 2 (Lot. BCBW1143, Cat. No. 70192, Sigma); Trypcase Soy Blood-agar plates (Cat. No. 43001, Biomérieux); Cryoinstant (contains 15% glycerol; Cat. No. 822070ZA, VWR International); GasPak™ EZ Standard Incubation Container (Cat. No. 260671, Becton Dickinson); GasPak™ EZ Campy Container System Sachets (Cat. No. 260680, Becton Dickinson); 96-well deep well plate, 1 mL (Cat. No. 0030506.200, Eppendorf); Plate lid (Cat. No. 0030131.525, Eppendorf); 96-well plate, F-bottom (Cat. No. 260860, Nunc); Incubator (Sartorius Certomat BS-1); Laminar flow (Heraeus HS12); UV/VIS meter (Perkin Elmer Lambda Bio+); Platereader (Tecan Infinite M200 Pro).
Compound preparation. Compounds were prepared in MH2 media at a concentration of 5 mM and stored at 4° C. For testing, solutions of 128 μM were prepared in MH2, for tests against E. faecalis a solution of 512 μM was prepared. Out of these working solutions, 400 μL was transferred to wells in the first column of 96-well deep well plates. Each compound was transferred in triplicate. Plates were previously filled with 200 μL of MH2 media in all wells except for the wells in the first column. After compound and antibiotic addition, the compounds were serial two-fold diluted by transferring 200 μL from the first to the second column, then from the second to the third column and so on. Finally, 200 μL was removed from the last column.
Inoculum preparation. Microorganisms used were all revived from 15% glycerol storage in Croinstant tubes at −28° C. by plating them on blood agar plates. A. baumanni, and E. cloacae were grown aerobically at 37° C., E. faecalis was grown microaerophilically at 37° C., and K. pneumoniae was grown aerobically at 37° C. Plates were stored at 4° C. for up to two weeks, after which new plates were prepared from −28° C. A single colony was inoculated in MH2 media and grown at 37° C. and 200 rpm to an optical density (measured by UV/Vis spectroscopy) of 0.6-0.8 at 600 nm. Out of these suspensions, actual inoculums were prepared by diluting them to an optical density of 0.1 in MH2 media. From these inoculums, 200 μL was transferred to each well, resulting in a final compound concentration range of 64 μM-31.3 nM for, K. pneumoniae, A. baumanni, and E. cloacae, and 256 μM-125 nM for E. faecalis. Plates inoculated with E. faecalis were placed inside a GasPak™ Container System with GasPak™ Campy Container System sachets. All plates were incubated at 200 rpm for 18 h under the microorganism culturing conditions mentioned above.
MIC determination. After 18 h of growth, 200 μL was transferred to a 96-well F-bottom plate. The optical density was determined by a plate reader at 600 nm, with 10 s shaking before reading. Triplicate measurements were averaged, and a growth curve was plotted in Excel. The first column in which the growth reached half the value of maximum growth was determined as the MIC50 value for that particular compound.
MIC50. The MIC50 of a compound was assigned at which the bacterial growth reached half the value of maximum growth.

[1] = Acinetobacter baumannii, DSM105126, read-out: MIC 50

| SMILES | MIC50 [1] [µM] | MIC50 [µM] |
| --- | --- | --- |
| N=C(NC[C@@H]1CCCN1)NC1[C@@H](O)C(OC2[C@@H](F)[C@H](O[C@H]3OC(CN)[C@@H](O)CC3N)C(N)C[C@H]2NC(=O)[C@@H](O)CCN)O[C@H](CO)[C@H]1O (stereo partly drawn) [ABX5026, Tobra-AHB-F-Gua (S) pyrrolidine-2-yl-methyl] | 0.0312 to 0.0625 (≈ 0.0217 to 0.0435 µg/mL) |  |
| NCCC(O)C(=O)NC1CC(N)C(OC2OC(CN)C(O)C(O)C2N)C(O)C1OC1OC(CO)C(O)C(N)C1O (centres unmarked) [ABX4001, KanaB-AHB] |  | 0.5 (≈ 0.292 µg/mL) |
| NCC[C@H](O)C(=O)N[C@@H]1CC(N)[C@@H](O[C@H]2OC(CN)[C@@H](O)[C@@H](O)C2N)[C@H](O)C1OC1O[C@H](CO)[C@@H](O)C(N)[C@H]1O (stereo partly drawn) [ABX4002, 3′Epi-KanaB-AHB] |  | 0.5 (≈ 0.292 µg/mL) |
| NCCC(O)C(=O)NC1CC(N)C(OC2OC(CN)C(O)C(O)C2N)C(F)C1OC1OC(CO)C(O)C(N)C1O (centres unmarked) [ABX4007, KanaB-AHB-F] |  | 0.5 (≈ 0.293 µg/mL) |
| N=C(NCC1CCOC1)NC1[C@@H](O)C(OC2[C@@H](F)[C@H](O[C@H]3OC(CN)[C@@H](O)CC3N)C(N)C[C@H]2NC(=O)[C@@H](O)CCN)O[C@H](CO)[C@H]1O (some centres unmarked) [ABX5051, Tobra-AHB-F-Gua tetrahydrofuran-3-yl methyl] | 0.5 (≈ 0.348 µg/mL) |  |

Reference: patent US20220127297A1, “Novel Antibacterial 3"-Derivatives Of 4,6-Disubstituted 2,5-Dideoxystreptamine Aminoglycoside Antibiotics” (AGILeBiotics B.V., priority 2018, published 2022)
